“Also recorded” adds a separate entry of the source.
What was measured:
solid tumor cell lines = assay: Growth inhibition, range over the cell lines of Table 2; format: cell-based; conditions: Homo sapiens, read-out: IC50 values, range over the cell lines tested
Description: (§1) Cell viability (LNCaP, PC-3 prostate, DU145, PPC-1, and TSU-Pr1 prostate cancer cell lines, HT-29 colon cancer cell line, and MCF-7 breast cancer cell line) was quantitated using the sulforhodamine B (SRB) assay after 96 h coincubation with different concentrations of compound in 96-well plates. Cell viability of leukemia cells (K562 and doxorubicin-resistant K562/Dox) was quantitated by MTT assay after 96 h coincubation with different concentrations of compound in 96-well plates. Drug-induced apoptosis was determined by anti-histone ELISA assay and DNA laddering. Cell cycle progression was assessed by propidium iodide staining and fluorescence-activated cell sorting (FACS) analysis. In vitro tubulin polymerization assay was determined by CytoDYNAMIX ScreenTM3 (CDS-03) kits according to the manufacturer's instructions. Anti-apoptosis protein (Bcl-2 and Bcl-xl) and pro-apoptosis protein (Bax) were examined in LNCaP and PC-3 after 24 h incubation with different concentrations of compound 13 by Western blot assay. In vivo PC-3 xenograft studies were conducted by i.v. dosing of 50 mg/kg, 100 mg/kg and 150 mg/kg for 2 weeks.
Cells were plated in 96-well plates at a density of 800-5,000 cells/well, depending on the cell line, in their required growth media containing 10% fetal bovine serum. […]

Bcl-2 = assay: Western blot of anti- and pro-apoptosis proteins; format: cell-based, human; conditions: LNCaP and PC-3, increasing concentration, 24 h
Description: as §1
100 nM of compound 13 was incubated with LNCaP for 24 h and PC-3 for 48 h. […] The results are expressed as enrichment factor (Enrichment factor=OD of treated cells/OD from control cells). […]

PPC-1 [1] = assay: Cell viability SRB assay, 96 h; format: cell-based; conditions: Homo sapiens, PPC-1, 96 h
Description: as §1
(§2) Cells were plated in 96-well plates at a density of 800-5,000 cells/well, depending on the cell line, in their required growth media containing 10% fetal bovine serum. Preliminary studies were performed with each cell line using a variety of cell densities and incubation times to determine appropriate seeding densities. The compound of interest was dissolved in DMSO, diluted in cell culture medium (final DMSO concentration was less than 0.5% v/v), and added to quadruplicate wells at final concentrations ranging from 0 to 100 μM. Control wells to which only drug-free vehicle was added were included as negative controls.
(§3) Cells were incubated for 96 hour at 37° C. in a humidified atmosphere containing 5% carbon dioxide.
(§4) Cells were stained with SRB solution. […] WinNonlin was provided by a Pharsight Academic License to The Ohio State University.

PC-3 = assay: Cell viability SRB assay, 96 h; format: cell-based; conditions: Homo sapiens, PC-3, 96 h
Description: as §1, §2, §3, §4

TSU = assay: Cell viability SRB assay, 96 h; format: cell-based; conditions: Homo sapiens, TSU (TSU-Pr1)
Description: as §1, §2, §3, §4

DU-145 [2] = assay: Cell viability SRB assay, 96 h; format: cell-based; conditions: Homo sapiens, DU-145, 96 h
Description: as §1, §2, §3, §4

LNCaP = assay: Cell viability SRB assay, 96 h; format: cell-based; conditions: Homo sapiens
Description: as §1, §2, §3, §4

PC-3 xenograft = assay: Antitumor activity in PC-3 xenograft; format: in vivo, Balb/c mice; conditions: 50, 100, or 150 mg/kg/d, 5 days on/2 days off
Description: PC-3 tumor cells (2×10^6 cells) were suspended in saline and injected S.C. in both flanks of recipient mice (n=15). Tumor size was measured every other day and volume calculated as V=π/6*(length)x(width)^2 (75). […] Tumor growth and body weight was monitored every other day for the remainder of the study.

MES-SA/DX5 xenografts = assay: In vivo antitumor efficacy, MES-SA/DX5 xenograft; conditions: for TGI (tumor growth inhibition): MES-SA/DX5 xenograft, q2d, i.p.
Description: (§5) The control group was treated with vehicle (10% DMSO in PEG300).

PC-3 cells [3] = assay: DNA fragmentation by cell death detection ELISA (anti-histone); format: cell-based; conditions: Homo sapiens, 24 h, read-out: EC50 of increase of enrichment factor (DNA fragmentation)
Description: Apoptosis was measured by quantitation of cytoplasmic histone-associated DNA fragments using the cell death detection ELISA kit. Cells were seeded in 6-well plates and exposed to 68 for 24 h at different concentrations. The quantitation of DNA fragments was performed according to the manufacturer's instructions. Results are expressed as the enrichment factor (i.e., the ratio of the optical density in treated cells to the optical density in control cells).

Rotarod performance = format: in vivo, ICR mice
Description: The training and rotarod test was conducted as described previously. Briefly, during the training phase for 2 consecutive days (3 trials/day), mice (10 mice/group) were trained to run in a rotarod apparatus without falling at a constant speed (12 rpm) for a maximum of 2 min. For the rotarod performance test, duration of each trial was less than 5 min. […] Tests were performed for 2 weeks (2 days/week). The animals were tested in three trials per day with an intertrial interval of 30 min. Animal performance was recorded as the average elapsed time for the mice to fall off.

PPC-1 [4] = assay: Growth inhibition assay (SRB, 96 h); format: cell-based; conditions: Homo sapiens, PPC-1, 96 h
Source text: (§6) MTT (3-(4,5-dimethylthiazol-2-yl)-2,5-diphenyltetrazolium bromide) assay was also used for the leukemia cell lines. […] Cells were stained with SRB solution or MTT solution.

DU-145 [5] = assay: Growth inhibition assay (SRB, 96 h); format: cell-based; conditions: Homo sapiens, DU-145, 96 h
Source text: as §6

PC-12 cells = assay: PC-12 cell growth inhibition (SRB); format: cell-based
Source text: as §6

MES-SA xenografts = assay: In vivo antitumor efficacy, MES-SA xenograft; set-up: species or system mice; conditions: q2d, i.p.
Description: as §5

PC-3 cells [6] = assay: Indirect immunofluorescence microscopy of microtubules; format: cell-based, human; conditions: 24 h, anti-α-tubulin-FITC
Description: PC-3 cells were plated on poly-D-lysine coated glass cover slips in 6-well plates (5×10^4 cells/well) the day before treatment. After cells were incubated with cytotoxic agents at 37° C. for 24 h, cells were fixed on the cover slips with 4% formaldehyde in PBS for 10 min and permeabilized by 2% Triton-X in PBS for 5 min at rt. Fixed cells were blocked with 3% bovine serum albumin in TBST for 30 min and incubated with anti-α-tubulin-FITC antibody (1:100 dilution) at 4° C. overnight. Cover slips were mounted on slides using mounting medium with 4′,6-diamidino-2-phenylindole (DAPI), followed by microscopic analysis with a Zeiss Axioplan 2 fluorescent microscope (Carl Zeiss, Thornwood, N.Y.). Images were acquired with a Zeiss Axiocam HRc, using Zeiss AxioVision.

| SMILES | IC50 (solid tumor cell lines) | IC50 (PPC-1 [1]) | IC50 (PC-3) | IC50 (TSU) | IC50 (DU-145 [2]) | IC50 (LNCaP) | EC50 (PC-3 cells [3]) | IC70 value in PC-12 cell growth inhibition (PC-12 cells) | also measured |
| --- | --- | --- | --- | --- | --- | --- | --- | --- | --- |
| O=C(c1cccc(-c2cc3ccccc3[nH]2)c1)c1cc2ccccc2[nH]1 [Compound 13, (1H-indol-2-yl)-[3-(1H-indol-2-yl)phenyl]methanone] | 0.034 to 0.138 µM | 0.0673 ± 0.0011 µM | 0.0811 ± 0.0096 µM | 0.0338 ± 0.0018 µM | 0.138 ± 0.0126 µM | 0.442 ± 0.0024 µM | – | – | Bcl-2 level by Western blot (Bcl-2): decreased; tumor growth (PC-3 xenograft): suppressed tumor growth in a dose-dependent manner |
| COc1cc(C(=O)c2cccc(-c3cc4ccccc4[nH]3)c2)cc(OC)c1OC [Compound 68, [3-(1H-Indol-2-yl)-phenyl]-(3,4,5-trimethoxy-phenyl)-methanone] | 0.018 to 0.031 µM | 0.019 ± 0.0015 µM | 0.028 ± 0.002 µM | 0.018 ± 0.0021 µM | 0.023 ± 0.0041 µM | 0.013 ± 0.0035 µM | 0.0427 µM | 0.05 µM | general toxicity and body weight loss (MES-SA/DX5 xenografts; MES-SA and MES-SA/DX5 xenograft mice, 5 or 10 mg/kg): did not induce any general toxicity or significant body weight loss; TGI (tumor growth inhibition) (MES-SA/DX5 xenografts; 5 mg/kg): 47%; TGI (tumor growth inhibition) (MES-SA/DX5 xenografts; 10 mg/kg): 76%; rotarod performance (Rotarod performance; 10 mg/kg i.p. q2d, 2 weeks, vs vehicle control): did not show impaired rotarod performance; also recorded: no loss of function; IC50 (PPC-1 [4]): 0.0187 ± 0.0015 µM; IC50 (DU-145 [5]): 0.0228 ± 0.0041 µM; TGI (tumor growth inhibition) (MES-SA xenografts; 5 mg/kg): 47%; TGI (tumor growth inhibition) (MES-SA xenografts; 10 mg/kg): 74% |
| CC[C@]1(O)C[C@@H]2CN(CCc3c([nH]c4ccccc34)[C@@](C(=O)OC)(c3cc4c(cc3OC)N(C)[C@H]3[C@@](O)(C(=O)OC)[C@H](OC(C)=O)[C@]5(CC)C=CCN6CC[C@]43[C@@H]65)C2)C1 [Vinblastine] | – | – | – | – | – | – | 0.0081 µM | 0.005 µM | TGI (tumor growth inhibition) (MES-SA/DX5 xenografts; 0.5 mg/kg): 24%; rotarod performance (Rotarod performance; 0.5 mg/kg i.p. q2d, day 4 to day 14): impaired performance; mean time on the rotating rod (Rotarod performance; 0.5 mg/kg i.p. q2d, end of 2 weeks (vehicle 151 s)): 121 s; TGI (tumor growth inhibition) (MES-SA xenografts; 0.5 mg/kg): 48%; microtubule changes by immunofluorescence (PC-3 cells [6]): short microtubules |

— US20120022121A1, “INDOLES, DERIVATIVES AND ANALOGS THEREOF AND USES THEREFOR” (priority 2007, published 2012)
